Laboratory results as given in paper PMC8122671, “New Succinimides with Potent Anticancer Activity: Synthesis, Activation of Stress Signaling Pathways and Characterization of Apoptosis in Leukemia and Cervical Cancer Cells” (International Journal of Molecular Sciences, 2021).
Read-outs that look alike come from different tables or passages of the source.

Tests used:
[1] = Lipophilicity (logkw) by reversed-phase chromatography (RP-HPLC); type: physicochemical; details: for logkw (Experimental): extrapolated to pure water; for logkw (Table S2): intercept of logk vs methanol fraction, n = 4
Text: The main goal of the synthetic part was the synthesis of new derivatives of dicarboximides with decreased lipophilicity in comparison to the lead compounds, i.e., Ia–Ie and II. To reduce the lipophilicity of the new dicarboximides, a hydroxyalkyl chain connected with an aliphatic amine was introduced to the imides (Scheme 1). At the same time, the imide scaffold in derivatives from group 2 and 3 was the same as in lead compounds Ia–Ie and II, respectively (Figure 1). The structure of the imide was changed in derivatives 1b–1g. The lipophilicity of new derivatives was calculated using the Osiris Property Explorer program. For some compounds, lipophilicity was determined experimentally by a reversed-phase chromatography (detailed description is given in Materials and Methods and in the Supplementary Data, Table S2). Table 1 summarizes the calculated (clogP) and experimental (logkw) parameters of the lipophilicity of new derivatives.
The reversed-phase high-performance liquid chromatography (RP-HPLC) analysis was performed on a Merck–Hitachi LaChrom Elite System (Merck, Darmstadt, Germany) with diode array detector L-2455, thermostat L-2300, pump L-2130, and autosampler L-2200 and with the Waters XTerra MS RP-18 (3.5 μm, 150 × 4.6 mm) chromatographic column (Waters, Milford, MA, USA) as the stationary phase. The mobile phase consisted of methanol, water, and 0.1% (v/v) formic acid and was degassed by the use of the built-in membrane degasser. The methanol gradient grade for HPLC was purchased from Merck (Merck, Darmstadt, Germany) and formic acid from Polish Reagents (Polish Reagents, Gliwice, Poland); double-distilled water was used. Then, 5 μL of methanolic solutions (0.1%; m/v) of selected samples were applied to the chromatographic column by the use of an autosampler Hitachi L-2200 (LaChrom Elite, Hitachi-Merck, Darmstadt, Germany). The analysis was performed with the flow rate of 0.7 mL min^−1 in isocratic mode using various concentrations of organic modifier (methanol) in binary polar mobile phases; percentages of methanol in water were 45–70% (%, v/v) and changed by 5% per step. Chromatograms were detected at 254 nm and the temperature of the column was 25 °C. All experiments were repeated in triplicate, and the final results were taken to be the arithmetic means. Dead time was measured by the use of uracil (Calbiochem. Merck, Darmstadt, Germany). Statistical and regression analyses were performed using Statistica (ver. 13.3 for Windows). The chromatographic lipophilicity parameters ( logkW ) for selected samples were obtained by the extrapolation of the retention parameter logk to pure water, according to Equation (1):(1) logk=logkw−S·ϕ; where logkW is the value of the retention factor of a substance in pure water, S is the slope of the regression curve, and ϕ is the concentration of the organic modifier. The values of logk were calculated based on the raw HPLC data using the formula (2):(2) logk=logtR−t0/t0; where tR is the retention time and t0 is the dead retention time (determined for uracil).
The chromatographic lipophilicity parameters (logkௐ ) for selected samples were ob‐ tained by the extrapolation of the retention parame te r logk to pure water, according to […]
where logkௐ is the value of the retention factor of a substance in pure water, S is the slope of the regression curve, and φ is the concentration of the organic modifier. The values of logk were ca lcula ted based on the raw HPLC data using the formula: […]
logk ൌ log ሺ௧ೃ ି ௧బ௧బ ሻ (2) where tோ is the retention time and t଴ is the dead retention time (determined for ura‐ cil). The goodness of fit of the equation (1) to the experimental data was classified accord‐ ing to Jaffe (Jaffe, H. H. A Reexamination of the Hammet Equation. Chem. Rev. 1953, 53, In our RP‐HPLC experiments, the goodness of fit of the equation to the experi‐ mental data are excellent in most ca ses (r > 0.99). The F statistic val ues are, in all cases, […]

[2] = test system: MOLT-4 (Human T-Lymphoid Cell Line); assay: MTT cytotoxicity assay, MOLT-4; type: cell-based; details: read-out: IC50 MOLT-4
Description: (§1) The cytotoxicity of new derivatives of dicarboximides was tested in HeLa (cervix carcinoma cell line), K562 (myelogenous leukemia cell line), MOLT-4 (Human T-Lymphoid Cell Line), and HUVEC (normal endothelial) cells. First, the viability of cells was determined after 48 h incubation with the screened compounds used at the concentration of 100 μM (data not shown). […] Cells exposed to 1% DMSO (as vehicle) served as the control with 100% survival.
(§2) Human umbilical vein endothelial cells (Life Technologies, Carlsbad, CA, USA) were cultured (according to the manufacturer’s instructions) in Medium 200 containing low serum growth supplement; 1 × 10^4 cells were seeded on each well on a 96-well plate (Nunc, Roskilde, Denmark). The HeLa (human cervix carcinoma), K562, and MOLT-4 (leukemia) cells were cultured in RPMI 1640 medium supplemented with antibiotics and 10% fetal calf serum in a 5% CO2–95% air atmosphere; 7 × 10^3 cells were seeded on each well on a 96-well plate (Nunc). Twenty-four hours later, cells were exposed to the test compounds for additional 48 hours. Stock solutions of test compounds were freshly prepared in DMSO. The final concentrations of the compounds tested in the cell cultures were 2 × 10^−1, 1 × 10^−1, 5 × 10^−2, 1 × 10^−2, 1 × 10^−3, and 1 × 10^−4 mM. The concentration of DMSO in the cell culture medium was 1%. The values of IC50 (the concentration of test compound required to reduce the cell survival fraction to 50% of the control) were calculated from dose–response curves and used as a measure of cellular sensitivity to a given treatment. The cytotoxicity of all compounds was determined by the MTT [3-(4,5-dimethylthiazol-2-yl)-2,5-diphenyltetrazolium bromide; Sigma, St. Louis, MO, USA] assay. Briefly, after 24 or 48 h of incubation with drugs, the cells were treated with the MTT reagent, and incubation was continued for 2 h. MTT-formazan crystals were dissolved in 20% SDS and 50% DMF at pH 4.7, and absorbance was read at 570 and 650 nm on a microplate reader FLUOstar Omega (BMG Labtech, Offenburg, Germany). As a control (100% viability), we used cells grown in the presence of the vehicle (1% DMSO) only.

[3] = test system: HUVEC (normal endothelial) cells; assay: MTT cytotoxicity assay, HUVEC; type: cell-based; details: Homo sapiens, read-out: IC50 HUVEC
Description: as §1, §2

[4] = test system: K562 (myelogenous leukemia cell line); assay: MTT cytotoxicity assay, K562; type: cell-based, human; details: Homo sapiens, K562, 48 h, read-out: IC50 K562
Description: as §1, §2

[5] = test system: HeLa (human cervix carcinoma) cells; assay: MTT cytotoxicity assay, HeLa; type: cell-based; details: read-out: IC50 HeLa
Description: as §1, §2

[6] = MOLT-4, 48 h incubation, average (SD) of three experiments
[7] = 48 h incubation, average (SD) of three experiments

logkw (Experimental) [1] | logkw (Table S2) [1] | SMILES | IC50 [2, 6] | IC50 [3, 7] | IC50 [4, 7] | IC50 [5, 7] | IC50 ([2]; MOLT-4, 48 h) | IC50 ([3]; 48 h) | IC50 [4] | IC50 ([5]; 48 h)
4.78 | 4.7844 | CCNCC(O)CN1C(=O)C2C(C1=O)C1(C)C(=O)C2(C)C(c2ccccc2)=C1c1ccccc1 (stereo not drawn) [1b, 4-[3-(ethylamino)-2-hydroxypropyl]-1,7-dimethyl-8,9-diphenyl-4-azatricyclo [5.2.1.0^2,6]dec-8-ene-3,5,10-trione] | 7 µM | 20 µM | 32 µM | 30 µM |  |  |  | 
4.91 | 4.9077 | CC(C)(C)NCC(O)CN1C(=O)C2C(C1=O)C1(C)C(=O)C2(C)C(c2ccccc2)=C1c1ccccc1 (stereo not drawn) [1c, 4-[3-(tert-butylamino)-2-hydroxypropyl]-1,7-dimethyl-8,9-diphenyl-4-azatricyclo [5.2.1.0^2,6]dec-8-ene-3,5,10-trione] | 28 µM | 23 µM | 28 µM | 26 µM |  |  |  | 
 |  | CCCCN(CCCC)CC(O)CN1C(=O)C2C(C1=O)C1(C)C(=O)C2(C)C(c2ccccc2)=C1c1ccccc1 (stereo not drawn) [1e, 4-[3-(dibutylamino)-2-hydroxypropyl]-1,7-dimethyl-8,9-diphenyl-4-azatricyclo [5.2.1.0^2,6]dec-8-ene-3,5,10-trione] | 8 µM | 30 µM | 5.8 µM | 3.2 µM |  |  |  | 
 |  | CC12C(=O)C(C)(C(c3ccccc3)=C1c1ccccc1)C1C(=O)N(CC(O)CN3CCCCC3)C(=O)C12 (stereo not drawn) [1f, 4-[2-hydroxy-3-(piperidin-1-yl)propyl]-1,7-dimethyl-8,9-diphenyl-4-azatricyclo[5.2.1.0^2,6]dec-8-ene-3,5,10-trione] | 40 µM | 21 µM | 18 µM | 55 µM |  |  |  | 
4.83 | 4.8345 | CC12C(=O)C(C)(C(c3ccccc3)=C1c1ccccc1)C1C(=O)N(CC(O)CN3CCOCC3)C(=O)C12 (stereo not drawn) [1g, 4-[-2-hydroxy-3-(morpholin-4-yl)propyl]-1,7-dimethyl-8,9-diphenyl-4-azatricyclo [5.2.1.0^2,6]dec-8-ene-3,5,10-trione] | > 100 µM |  | > 100 µM | > 100 µM |  |  |  | 
 |  | CC12C(=O)C(C)(C(c3ccccc3)=C1c1ccccc1)C1C(=O)N(CCN3CCCCC3)C(=O)C12 (stereo not drawn) [1i, 4-[2-(piperidin-1-yl)ethy]-1,7-dimethyl-8,9-diphenyl-4-azatricyclo[5.2.1.0^2,6]dec-8-ene-3,5,10-trione] | 15 µM | 23 µM | 30 µM | 52 µM |  |  |  | 
 |  | CC12C(=O)C(C)(C(c3ccccc3)=C1c1ccccc1)C1C(=O)N(CCN3CCOCC3)C(=O)C12 (stereo not drawn) [1j, 4-[2-(morpholin-4-yl)ethy]-1,7-dimethyl-8,9-diphenyl-4-azatricyclo[5.2.1.0^2,6]dec-8-ene-3,5,10-trione] | > 100 µM |  | > 100 µM | > 100 µM |  |  |  | 
 |  | CCCCN(CCCC)CC(O)CN1C(=O)C2C(C1=O)C1(CC)C(=O)C2(CC)C(c2ccccc2)=C1c1ccccc1 (stereo not drawn) [2e, 4-[3-(dibutylamino)-2-hydroxypropyl]-1,7-diethyl-8,9-diphenyl-4-azatricyclo[5.2.1.0^2,6]dec-8-ene-3,5,10-trione] | 3.1 µM | 1.2 µM | 4.1 µM | 19 µM |  |  |  | 
6.31 | 6.3071 | CCNCC(O)CN1C(=O)C2C(C1=O)C1(c3ccccc3)CC2(c2ccccc2)C(c2ccccc2)=C1c1ccccc1 (stereo not drawn) [3b, 4-[3-(ethylamino)-2-hydroxypropyl]-1,7,8,9-tetraphenyl-4-azatricyclo[5.2.1.0^2,6]dec-8-ene-3,5-dione] | > 100 µM |  | > 100 µM | > 100 µM |  |  |  | 
 |  | CCCCN(CCCC)CC(O)CN1C(=O)C2C(C1=O)C1(c3ccccc3)CC2(c2ccccc2)C(c2ccccc2)=C1c1ccccc1 (stereo not drawn) [3e, 4-[3-(dibutylamino)-2-hydroxypropyl]-1,7,8,9-tetraphenyl-4-azatricyclo[5.2.1.0^2,6]dec-8-ene-3,5-dione] | 5.4 µM | 7 µM | 6 µM | 40 µM |  |  |  | 
 |  | CN(C)CCN1C(=O)C2C(C1=O)C1(c3ccccc3)CC2(c2ccccc2)C(c2ccccc2)=C1c1ccccc1 (stereo not drawn) [II] | 18 µM | 4 µM | 16 µM | 20 µM |  |  |  | 
4.94 | 4.9430 | CCC12C(=O)C(CC)(C(c3ccccc3)=C1c1ccccc1)C1C(=O)N(CCN(C)C)C(=O)C12 (stereo not drawn) [Ia] |  |  |  |  |  |  |  | 
5.09 | 5.0889 | CCN(CC)CCN1C(=O)C2C(C1=O)C1(CC)C(=O)C2(CC)C(c2ccccc2)=C1c1ccccc1 (stereo not drawn) [Ib] |  |  |  |  |  |  |  | 
 |  | CCC12C(=O)C(CC)(C(c3ccccc3)=C1c1ccccc1)C1C(=O)N(CCN3CCCCC3)C(=O)C12 (stereo not drawn) [Ic] | 15 µM | 15 µM | 20 µM | 18 µM |  |  |  | 
5.05 | 5.0532 | CCC12C(=O)C(CC)(C(c3ccccc3)=C1c1ccccc1)C1C(=O)N(CCCN(C)C)C(=O)C12 (stereo not drawn) [Id] |  |  |  |  |  |  |  | 
 |  | CCC12C(=O)C(CC)(C(c3ccccc3)=C1c1ccccc1)C1C(=O)N(CC(O)CNC(C)C)C(=O)C12 (stereo not drawn) [Ie] |  |  |  |  | 15 µM | 3.5 µM | 8 µM | 10 µM
